In US8278348B2, “Chondropsin-class antitumor V-atpase inhibitor compounds, compositions and methods of use thereof” (priority 2002, dated 2012):

Assays:
Experiment in all cases: Two day XTT cytotoxicity assay
Assay type in all cases: cell-based
IC-2 WT = conditions: Mus musculus, Murine mast cell
Text: (§1) This example describes the cytoxicity of poecillastrin A (1), isolated in Example 1. The cytotoxicity assay, details of which have been described previously (Bokesch et al., J. Nat. Prod. 1999, 62, 633-635), utilized melanoma (LOX), breast […], ovarian (OVCAR-3), and non-small cell lung (SNB-19) human tumor cell lines and IC-2^WT and IC-2^V814 murine mast cell lines (Hashimoto et al., Am. J. Pathol. 1996, 148, 189-200).
(§2) The in vitro 10 cell-line bioassay was a two day bioassay. Cells were grown in RPMI-1640 (Rosweli Park Memorial Institute) without L-glutamine, supplemented with 10% fetal bovine serum, 5.0 mL of a 200 mM glutamine stock, and 0.5 mL of gentamicin and plated out in T-162 cm^2 flasks. Once the cells were confluent, they were harvested and plated in 96-well microtiter flat-bottom plates at a seeding density of 50-10,000 cells per well, to yield optical density readings in the range of 1-2.0, and incubated for 1 h in a 37° C., 5% CO2 incubator. After the 1 h incubation, the cells were then introduced to the sample of poecillastrin A, via a Beckman Biomek Workstation-1000. The Biomek-1000 performed seven serial dilutions in a 96-well round-bottom plate and then transferred aliquots of 100 μL to the assay plate. The plate was then returned to the incubator for […]. After the two day incubation, the cells were exposed to tetrazolium salt, 2,3-bis[2-methoxy-4-nitro-5-sulfophenyl]-2H-tetrazolium-5-carboxanilide (XTT), for a 4 h incubation in a 37° C. incubator, where viable cells reduced the tetrazolium salt to a colored formazan product. Once the incubation was complete, the plates were read in a dual wavelength mode at 450 nm, with a 650 nm reference, using a SpectraMAX 250 (Molecular Devices) plate reader. Resulting data for each cell line are found in Table 3.

SNB-19 = conditions: Homo sapiens, Non-small cell lung
Text: as §1, §2

IC-2 V814 = conditions: Mus musculus, Murine mast cell
Text: as §1, §2

LOX = conditions: Homo sapiens, Melanoma
Text: as §1, §2

A549 = conditions: Homo sapiens, Breast
Text: as §1, §2

OVCAR-3 = conditions: Homo sapiens, Ovarian
Text: as §1, §2

Structure (SMILES): COC1/C=C/C=C/CC/C=C/C=C/C(=O)NC(C(O)C(=O)O)C(=O)OC(C(C)C(O)C(NC(=O)C(C)C(O)CCC(C)C(O)/C(C)=C/C(C)(C)C(O)C(CC(C)C)NC(=O)/C=C/C(C)(C)C(=O)C(C)C(O)C(C)C)C(C)O)C/C=C(\C)C(O)C(C)/C=C(\C)C(O)C(C)C(O)CC2CC(C)CC1O2 (stereo not drawn) [Poecillastrin A, poecillastrin A]
- IC50 (IC-2 WT): 0.206 µM
- IC50 (SNB-19): > 10 µM
- IC50 (IC-2 V814): 0.546 µM
- IC50 (LOX): 0.014 µM
- IC50 (A549): > 10 µM
- IC50 (OVCAR-3): 0.028 µM
